# According to publication PMC9497135, “Structure-Based Study to Overcome Cross-Reactivity of Novel Androgen Receptor Inhibitors” (Cells, 2022):
# Biological target: T1, wild type AR LBD (Homo sapiens, UniProt P10275)
# T1 construct: made in house; host or cells: E. coli BL21-DE3 co-transformed with pBirACm
# T1 sequence (P10275 669-900 limits assumed): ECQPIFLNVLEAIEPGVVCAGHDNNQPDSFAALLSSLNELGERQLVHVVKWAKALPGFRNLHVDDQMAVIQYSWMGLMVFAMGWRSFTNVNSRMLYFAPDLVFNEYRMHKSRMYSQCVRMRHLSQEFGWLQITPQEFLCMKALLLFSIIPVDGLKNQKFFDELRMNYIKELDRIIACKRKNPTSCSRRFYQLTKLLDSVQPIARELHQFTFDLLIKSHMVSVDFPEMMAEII
# Test: Biolayer interferometry (BLI), wild type LBD
# Assay type: binding
# Description: The direct reversible interaction between small molecules and the AR was quantified by BLI using OctetRED (ForteBio, Fremont, CA, USA). The wild type and T878A-LDB in fusion with an N-terminal (His)6-avidin ([…]) tag were expressed in E. coli BL21-DE3 cells co-transformed with pBirACm plasmid (Avidity), which expresses a biotin ligase leading to the biotynilation of the avidin tag on the LBD. Cells were grown in LB media at 37 °C to an OD600nm = 0.5 and then induced with 0.5 mM isopropyl-β-D-thiogalactoside. A measure of 20 µM of dihydrotestosterone (DHT) and 0.15 mM biotin were added and the cells were incubated at 16 °C for 18 to 20 h. Cells were then resuspended and lysed in buffer containing 500 mM Li2SO4, 50mM HEPES pH7.2, 10% Glycerol, 0.1% Octyl-beta-Glucoside, 20 µM of DHT, 5 mM β-mercaptoethanol, 10 mM imidazole and 0.1 mM phenylmethanesulfonyl fluoride. […] After an overnight dialysis against 150 mM Li2SO4, 50 mM HEPES pH7.2, 10% Glycerol, 0.1% Octyl-beta-Glucoside, 20 µM of DHT and 0.2 mM tris(2-carboxyethyl)phosphine, purified proteins at 50 µg/mL were bound to the super-streptavidin sensors overnight at 4 °C. The assay was performed at 20 °C in the dialysis buffer supplemented with 5% dimethyl sulfoxide (DMSO) which was also used as our reference measurement.
compound,measurement,setting,value
"COc1c(F)cccc1-c1csc(N2CCOCC2)n1 [VPC14368, 4-(4-(3-fluoro-2-methoxyphenyl)thiazol-2-yl)morpholine]",Direct binding to wild-type LBD by BLI,,confirmed at high concentrations and in a concentration-dependent manner
same,Concentration at which binding is seen (BLI),"Figure 2, 50-300 µM tested",above 100 µM
